Experimental data from patent publication US20240166693A1, “METHODS AND COMPOUNDS FOR MODULATING MYOTONIC DYSTROPY 1” (Design Therapeutics, Inc., priority 2020, published 2024).
Where two headings read alike, the source gives them in different places.

System: Myotonic Dystrophy 1 affected patient fibroblasts (Coriell GM04602; 1600 CTG repeats)
Test: DM1 foci reduction assay (CAG10-Cy3 FISH, average foci per nucleus)
Assay type: cell-based
Conditions: Homo sapiens, Fibroblast
How it was run: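 Read-out is mean nuclear foci per well from CAG10-Cy3 FISH (5 nM probe, overnight 37 °C) with DAPI nuclei, 4 fields per well at 20×. Compounds ran 48 h in 8-point, 3-fold series topping at 3 μM on 1600-CTG GM04602 fibroblasts, alongside GM07492 wild-type cells.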

[1] = 48 h, read-out: Foci Reduction in Fibroblast EC50, 48 h (nM)
[2] = DM1 fibroblasts, 48 h treatment, 8-point dose response, 3 μM top dose, read-out: Foci Reduction in Fibroblast EC50, 48 h

SMILES | EC50 [1] | EC50 [2]
CCN(CC)CCCC[C@H](NC(=O)[C@H](CC(C)C)NC(=O)[C@H](C)NC(=O)[C@H](Cc1ccccc1)NC(=O)c1ccc(C(C)(C)C)cc1)C(=O)N[C@@H](CO)C(=O)NCCOCCOCCOCCOCCOCCNC(=O)c1cc(NC(=O)c2nc(NC(=O)c3cc(NC(=O)[C@H](CCNC(=O)c4nc(NC(=O)CCNC(=O)c5cc(NC(=O)c6nccn6C)cn5C)cn4C)NC(C)=O)cn3C)cn2C)cn1C [Compound 117] | > 500 nM | –
CC(C)C[C@H](NC(=O)[C@H](C)NC(=O)[C@H](Cc1ccccc1)NC(=O)c1ccc(C(C)(C)C)cc1)C(=O)N[C@@H](CCCCN(C)C1CC2CCC1C2)C(=O)N[C@@H](CO)C(=O)NCCOCCOCCNC(=O)c1cc(NC(=O)c2cc(NC(=O)c3nc(NC(=O)c4cc(NC(=O)[C@@H](N)CCNC(=O)c5nc(NC(=O)c6cc(NC(=O)c7cc(NC(=O)c8nccn8C)cn7C)cn6C)cn5C)cn4C)cn3C)cn2C)cn1C (stereo partly shown) [Compound 118] | > 500 nM | –
CC(C)C[C@H](NC(=O)[C@H](C)NC(=O)[C@H](Cc1ccccc1)NC(=O)c1ccc(C(C)(C)C)cc1)C(=O)N[C@@H](CCCCN(C)C1CC2CCC1C2)C(=O)N[C@@H](CO)C(=O)NCCOCCOCCOCCOCCOCCOCCOCCOCCOCCOCCNC(=O)c1cc(NC(=O)c2cc(NC(=O)c3nc(NC(=O)c4cc(NC(=O)[C@@H](N)CCNC(=O)c5nc(NC(=O)c6cc(NC(=O)c7cc(NC(=O)c8nccn8C)cn7C)cn6C)cn5C)cn4C)cn3C)cn2C)cn1C (stereo partly shown) [Compound 119] | > 500 nM | –
Cn1cc(NC(=O)c2cc(NC(=O)c3nc(NC(=O)c4cc(NC(=O)[C@@H](N)CCNC(=O)c5nc(NC(=O)CCNC(=O)c6cc(NC(=O)c7nccn7C)cn6C)cn5C)cn4C)cn3C)cn2C)cc1C(=O)NCCOCCOCCOCCOCCOCCN1CCC(C(=O)Nc2ncc(SCc3ncc(C(C)(C)C)o3)s2)CC1 [Compound 120] | – | > 500 nM
Cn1cc(NC(=O)c2cc(NC(=O)c3nc(NC(=O)c4cc(NC(=O)[C@@H](N)CCNC(=O)c5nc(NC(=O)CCNC(=O)c6cc(NC(=O)c7nccn7C)cn6C)cn5C)cn4C)cn3C)cn2C)cc1C(=O)NCCOCCOCCOCCOCCOCCOCCOCCOCCOCCOCCOCCOCCOCCOCCOCCN1CCC(C(=O)Nc2ncc(SCc3ncc(C(C)(C)C)o3)s2)CC1 [Compound 121] | – | > 500 nM
CC(C)c1cnn2c(NCc3ccc(OCCOCCOCCOCCOCCOCCNC(=O)c4cc(NC(=O)c5cc(NC(=O)c6nc(NC(=O)c7cc(NC(=O)[C@@H](N)CCNC(=O)c8nc(NC(=O)CCNC(=O)c9cc(NC(=O)c%10nccn%10C)cn9C)cn8C)cn7C)cn6C)cn5C)cn4C)cc3-n3cccn3)nc(OC3CCCNC3)nc12 (stereo partly shown) [Compound 122] | – | > 500 nM
Cn1cc(NC(=O)c2nc(NC(=O)CCNC(=O)c3cc(NC(=O)c4nccn4C)cn3C)cn2C)cc1C(=O)NCCCC(=O)Nc1cn(C)c(C(=O)NCCC(=O)Nc2cc(C(=O)Nc3cn(C)c(C(=O)NCCC(=O)NCCOCCOCCn4cc(CC(=O)Nc5ccc(C(=O)Nc6ccccc6N)cc5)nn4)n3)n(C)c2)n1 [Compound 123] | – | > 500 nM
Cn1cc(NC(=O)c2nc(NC(=O)CCNC(=O)c3cc(NC(=O)c4nccn4C)cn3C)cn2C)cc1C(=O)NCCCC(=O)Nc1cn(C)c(C(=O)NCCC(=O)Nc2cc(C(=O)Nc3cn(C)c(C(=O)NCCC(=O)NCCOCCOCCOCCOCCOCCOCCn4cc(CC(=O)Nc5ccc(C(=O)Nc6ccccc6N)cc5)nn4)n3)n(C)c2)n1 [Compound 124] | – | > 500 nM
Cn1cc(NC(=O)c2nc(NC(=O)CCNC(=O)c3cc(NC(=O)c4nccn4C)cn3C)cn2C)cc1C(=O)NCCCC(=O)Nc1cn(C)c(C(=O)NCCC(=O)Nc2cc(C(=O)Nc3cn(C)c(C(=O)NCCC(=O)NCCOCCOCCn4cc(CCCCN(Cc5ccc(C(=O)NO)cc5)C(=O)Nc5ccccc5)nn4)n3)n(C)c2)n1 [Compound 125] | – | > 500 nM
Cn1cc(NC(=O)c2nc(NC(=O)CCNC(=O)c3cc(NC(=O)c4nccn4C)cn3C)cn2C)cc1C(=O)NCCCC(=O)Nc1cn(C)c(C(=O)NCCC(=O)Nc2cc(C(=O)Nc3cn(C)c(C(=O)NCCC(=O)NCCOCCOCCOCCOCCOCCOCCn4cc(CCCCN(Cc5ccc(C(=O)NO)cc5)C(=O)Nc5ccccc5)nn4)n3)n(C)c2)n1 [Compound 126] | – | > 500 nM
CCCCN(Cc1ccc(C(=O)NO)cc1)C(=O)Nc1ccc(OCc2cn(CCOCCOCCNC(=O)CCNC(=O)c3nc(NC(=O)c4cc(NC(=O)CCNC(=O)c5nc(NC(=O)CCCNC(=O)c6cc(NC(=O)c7nc(NC(=O)CCNC(=O)c8cc(NC(=O)c9nccn9C)cn8C)cn7C)cn6C)cn5C)cn4C)cn3C)nn2)cc1 [Compound 127] | – | > 500 nM
CCCCN(Cc1ccc(C(=O)NO)cc1)C(=O)Nc1ccc(OCc2cn(CCOCCOCCOCCOCCOCCOCCNC(=O)CCNC(=O)c3nc(NC(=O)c4cc(NC(=O)CCNC(=O)c5nc(NC(=O)CCCNC(=O)c6cc(NC(=O)c7nc(NC(=O)CCNC(=O)c8cc(NC(=O)c9nccn9C)cn8C)cn7C)cn6C)cn5C)cn4C)cn3C)nn2)cc1 [Compound 128] | – | > 500 nM
Cn1cc(NC(=O)c2nc(NC(=O)CCNC(=O)c3cc(NC(=O)c4nccn4C)cn3C)cn2C)cc1C(=O)NCCCC(=O)Nc1cn(C)c(C(=O)NCCC(=O)Nc2cc(C(=O)Nc3cn(C)c(C(=O)NCCC(=O)NCCOCCOCCOCCOCCOCCOc4ccc(NC(=O)CCCCCCC(=O)NO)cc4)n3)n(C)c2)n1 [Compound 129, N-hydroxy-N′-{4-[(17-{3-[(1-methyl-4-{1-methyl-4-[3-({1-methyl-4-[4-({1-methyl-4-[1-methyl-4-(3-{[1-methyl-4-(1-methylimidazole-2-amido)pyrrol-2-yl]formamido}propanamido)imidazole-2-amido]pyrrol-2-yl}formamido)butanamido]imidazol-2-yl}formamido)propanamido]pyrrole-2-amido}imidazol-2-yl)formamido]propanamido}-3,6,9,12,15-pentaoxaheptadecan-1-yl)oxy]phenyl}octanediamide] | – | > 500 nM
CCN(CC)CCCC[C@H](NC(=O)[C@H](CC(C)C)NC(=O)[C@H](C)NC(=O)[C@H](Cc1ccccc1)NC(=O)c1ccc(C(C)(C)C)cc1)C(=O)N[C@@H](CO)C(=O)NCCOCCOCCOCCOCCOCCNC(=O)c1cc(NC(=O)c2nc(NC(=O)CCNC(=O)c3cc(NC(=O)c4nc(NC(=O)CCCNC(=O)c5cc(NC(=O)c6nc(NC(=O)CCNC(=O)c7cc(NC(=O)c8nccn8C)cn7C)cn6C)cn5C)cn4C)cn3C)cn2C)cn1C [Compound 130] | < 100 nM | –
CCN(CC)CCCC[C@H](NC(=O)[C@H](CC(C)C)NC(=O)[C@H](C)NC(=O)[C@H](Cc1ccccc1)NC(=O)c1ccc(C(C)(C)C)cc1)C(=O)N[C@@H](CO)C(=O)NCCOCCOCCOCCOCCOCCNC(=O)c1cc(NC(=O)c2nc(NC(=O)CCNC(=O)c3cc(NC(=O)c4nc(NC(=O)[C@H](CCNC(=O)c5cc(NC(=O)c6nc(NC(=O)CCNC(=O)c7cc(NC(=O)c8nccn8C)cn7C)cn6C)cn5C)NC(C)=O)cn4C)cn3C)cn2C)cn1C [Compound 132] | < 100 nM | –
CCCNC(=O)c1cc(NC(=O)c2nc(NC(=O)CCNC(=O)c3cc(NC(=O)c4nc(NC(=O)[C@@H](CCNC(=O)c5cc(NC(=O)c6nc(NC(=O)CCNC(=O)c7cc(NC(=O)c8nccn8C)cn7C)cn6C)cn5C)NC(=O)COCCOCCOCCOCCOCCNC(=O)[C@H](CO)NC(=O)[C@H](CCCCN(CC)CC)NC(=O)[C@H](CC(C)C)NC(=O)[C@H](C)NC(=O)[C@H](Cc5ccccc5)NC(=O)c5ccc(C(C)(C)C)cc5)cn4C)cn3C)cn2C)cn1C [Compound 133] | 100 to 500 nM | –
CCN(CC)CCCC[C@H](NC(=O)[C@H](CC(C)C)NC(=O)[C@H](C)NC(=O)[C@H](Cc1ccccc1)NC(=O)c1ccc(C(C)(C)C)cc1)C(=O)N[C@@H](CO)C(=O)NCCOCCOCCOCCOCCOCC(=O)N[C@H](CCNC(=O)c1cc(NC(=O)c2nc(NC(=O)CCNC(=O)c3cc(NC(=O)c4nccn4C)cn3C)cn2C)cn1C)C(=O)Nc1cn(C)c(C(=O)Nc2cc(C(=O)NCCC(=O)Nc3cn(C)c(C(=O)Nc4cc(C(=O)NCCO)n(C)c4)n3)n(C)c2)n1 [Compound 134] | > 500 nM | –
CCN(CC)CCCC[C@H](NC(=O)[C@H](CC(C)C)NC(=O)[C@H](C)NC(=O)[C@H](Cc1ccccc1)NC(=O)c1ccc(C(C)(C)C)cc1)C(=O)N[C@@H](CO)C(=O)NCCOCCOCCOCCOCCOCCNC(=O)CCNC(=O)c1cc(NC(=O)c2nc(NC(=O)CCNC(=O)c3cc(NC(=O)c4nc(NC(=O)CCCNC(=O)c5cc(NC(=O)c6nc(NC(=O)CCNC(=O)c7cc(NC(=O)c8nccn8C)cn7C)cn6C)cn5C)cn4C)cn3C)cn2C)cn1C [Compound 135] | > 500 nM | –
CCCNC(=O)CCNC(=O)c1nc(NC(=O)c2nc(NC(=O)CCNC(=O)c3nc(NC(=O)[C@@H](CCNC(=O)c4cc(NC(=O)c5nc(NC(=O)CCNC(=O)c6cc(NC(=O)c7nccn7C)cn6C)cn5C)cn4C)NC(=O)COCCOCCOCCOCCOCCNC(=O)[C@H](CO)NC(=O)[C@H](CCCCN(CC)CC)NC(=O)[C@H](CC(C)C)NC(=O)[C@H](C)NC(=O)[C@H](Cc4ccccc4)NC(=O)c4ccc(C(C)(C)C)cc4)cn3C)cn2C)cn1C [Compound 137] | < 100 nM | –
CCN(CC)CCCC[C@H](NC(=O)CCCCOCCNC(=O)c1ccc(C(C)(C)C)cc1)C(=O)N[C@@H](CO)C(=O)NCCOCCOCCOCCOCCOCCNC(=O)CCNC(=O)c1nc(NC(=O)c2cc(NC(=O)CCNC(=O)c3nc(NC(=O)CCCNC(=O)c4cc(NC(=O)c5nc(NC(=O)CCNC(=O)c6cc(NC(=O)c7nccn7C)cn6C)cn5C)cn4C)cn3C)cn2C)cn1C [Compound 138] | 100 to 500 nM | –
CCN(CC)CCCC[C@H](NC(=O)CCCCCCCNC(=O)c1ccc(C(C)(C)C)cc1)C(=O)N[C@@H](CO)C(=O)NCCOCCOCCOCCOCCOCCNC(=O)CCNC(=O)c1nc(NC(=O)c2cc(NC(=O)CCNC(=O)c3nc(NC(=O)CCCNC(=O)c4cc(NC(=O)c5nc(NC(=O)CCNC(=O)c6cc(NC(=O)c7nccn7C)cn6C)cn5C)cn4C)cn3C)cn2C)cn1C [Compound 139] | < 100 nM | –
CCN(CC)CCCC[C@H](NC(=O)COCCOCCOCCNC(=O)c1ccc(C(C)(C)C)cc1)C(=O)N[C@@H](CO)C(=O)NCCOCCOCCOCCOCCOCCNC(=O)CCNC(=O)c1nc(NC(=O)c2cc(NC(=O)CCNC(=O)c3nc(NC(=O)CCCNC(=O)c4cc(NC(=O)c5nc(NC(=O)CCNC(=O)c6cc(NC(=O)c7nccn7C)cn6C)cn5C)cn4C)cn3C)cn2C)cn1C [Compound 140] | 100 to 500 nM | –
